Laboratory results as given in ChEMBL document CHEMBL4196088, “Induction of cell killing and autophagy by amphiphilic pyrrolidine derivatives on human pancreatic cancer cells” (Eur J Med Chem, 2018).
Calls of active or inactive are those of the source. No cut-off for these calls is given here.

What was measured:
[1] = tested on: PANC-1; assay: Growth inhibition of human PANC1 cells at 20 uM after 72 hrs; type: functional, cell-based
[2] = tested on: SK-BR-3; assay: Growth inhibition of human SKBR3 cells at 20 uM after 72 hrs; type: functional, cell-based
[3] = tested on: PK9; assay: Growth inhibition of human PK9 cells at 20 uM after 72 hrs by MTT assay; type: functional, cell-based
[4] = Induction of apoptosis in HPNE cells assessed as accumulation at sub-G0/G1 phase at 10 uM after 48 hrs by propidium iodide staining based flow cytometry (reference value: 0.7%); type: cell-based; details: human
[5] = Induction of apoptosis in HPNE cells assessed as accumulation at sub-G0/G1 phase at 10 uM after 72 hrs by propidium iodide staining based flow cytometry (reference value: 6.6%); type: cell-based; details: human
[6] = tested on: PK9; assay: Induction of apoptosis in human PK9 cells assessed as accumulation at sub-G0/G1 phase at 10 uM after 24 hrs by propidium iodide staining based flow cytometry (reference value: 2.2%); type: functional
[7] = tested on: Fibroblast; assay: Induction of apoptosis in human primary fibroblasts at 20 uM after 48 hrs by propidium iodide staining based flow cytometry (reference value: 6.1%); type: cell-based
[8] = Induction of apoptosis in HPNE cells assessed as accumulation at sub-G0/G1 phase at 20 uM after 24 hrs by propidium iodide staining based flow cytometry (reference value: 0.6%); type: cell-based; details: human
[9] = tested on: PANC-1; assay: Induction of apoptosis in human PANC1 cells assessed as accumulation at sub-G0/G1 phase at 20 uM after 48 hrs by propidium iodide staining based flow cytometry (reference value: 0.2 to 2.9%); type: functional
[10] = tested on: PK9; assay: Induction of apoptosis in human PK9 cells assessed as accumulation at sub-G0/G1 phase at 10 uM after 72 hrs by propidium iodide staining based flow cytometry (reference value: 4%); type: functional
[11] = tested on: PK9; assay: Induction of apoptosis in human PK9 cells assessed as accumulation at sub-G0/G1 phase at 20 uM after 24 hrs by propidium iodide staining based flow cytometry (reference value: 2.2%); type: functional
[12] = tested on: Fibroblast; assay: Induction of apoptosis in human primary fibroblasts assessed as accumulation at sub-G0/G1 phase at 10 uM after 72 hrs by propidium iodide staining based flow cytometry (reference value: 6.7%); type: cell-based
[13] = tested on: Fibroblast; assay: Induction of apoptosis in human primary fibroblasts assessed as accumulation at sub-G0/G1 phase at 10 uM after 24 hrs by propidium iodide staining based flow cytometry (reference value: 4.8%); type: cell-based
[14] = tested on: PANC-1; assay: Induction of apoptosis in human PANC1 cells assessed as accumulation at sub-G0/G1 phase at 10 uM after 72 hrs by propidium iodide staining based flow cytometry (reference value: 1.6 to 3.2%); type: functional
[15] = tested on: PK9; assay: Induction of apoptosis in human PK9 cells assessed as accumulation at sub-G0/G1 phase at 20 uM after 48 hrs by propidium iodide staining based flow cytometry (reference value: 3.8%); type: functional
[16] = tested on: PK9; assay: Induction of apoptosis in human PK9 cells assessed as accumulation at sub-G0/G1 phase at 20 uM after 72 hrs by propidium iodide staining based flow cytometry (reference value: 4%); type: functional
[17] = tested on: HeLa; assay: Growth inhibition of human HeLa cells after 72 hrs; type: functional, cell-based
[18] = Induction of apoptosis in HPNE cells assessed as accumulation at sub-G0/G1 phase at 20 uM after 72 hrs by propidium iodide staining based flow cytometry (reference value: 6.6%); type: cell-based; details: human
[19] = tested on: Fibroblast; assay: Induction of apoptosis in human primary fibroblasts at 20 uM after 24 hrs by propidium iodide staining based flow cytometry (reference value: 4.8%); type: cell-based
[20] = Induction of apoptosis in HPNE cells assessed as accumulation at sub-G0/G1 phase at 10 uM after 24 hrs by propidium iodide staining based flow cytometry (reference value: 0.6%); type: cell-based; details: human
[21] = tested on: Fibroblast; assay: Induction of apoptosis in human primary fibroblasts at 20 uM after 72 hrs by propidium iodide staining based flow cytometry (reference value: 6.7%); type: cell-based
[22] = Induction of apoptosis in HPNE cells assessed as accumulation at sub-G0/G1 phase at 20 uM after 48 hrs by propidium iodide staining based flow cytometry (reference value: 0.7%); type: cell-based; details: human
[23] = tested on: PANC-1; assay: Induction of apoptosis in human PANC1 cells assessed as accumulation at sub-G0/G1 phase at 20 uM after 24 hrs by propidium iodide staining based flow cytometry (reference value: 0.6 to 0.7%); type: functional
[24] = tested on: PK9; assay: Induction of apoptosis in human PK9 cells assessed as accumulation at sub-G0/G1 phase at 10 uM after 48 hrs by propidium iodide staining based flow cytometry (reference value: 3.8%); type: functional
[25] = tested on: PANC-1; assay: Induction of apoptosis in human PANC1 cells assessed as accumulation at sub-G0/G1 phase at 20 uM after 72 hrs by propidium iodide staining based flow cytometry (reference value: 1.6 to 3.2%); type: functional
[26] = tested on: PANC-1; assay: Induction of apoptosis in human PANC1 cells assessed as accumulation at sub-G0/G1 phase at 10 uM after 48 hrs by propidium iodide staining based flow cytometry (reference value: 0.2 to 2.9%); type: functional
[27] = tested on: Fibroblast; assay: Induction of apoptosis in human primary fibroblasts assessed as accumulation at sub-G0/G1 phase at 10 uM after 48 hrs by propidium iodide staining based flow cytometry (reference value: 6.1%); type: cell-based
[28] = tested on: PANC-1; assay: Induction of apoptosis in human PANC1 cells assessed as accumulation at sub-G0/G1 phase at 10 uM after 24 hrs by propidium iodide staining based flow cytometry (reference value: 0.6 to 0.7%); type: functional

Row | IC50 [17] [µM] | Compound | growth inhibition (GI) [1] | growth inhibition (GI) [2] | growth inhibition (GI) [3] | Activity [4] [%] | Activity [5] [%] | Activity [6] [%] | Activity [7] [%] | Activity [8] [%] | Activity [9] [%] | Activity [10] [%] | Activity [11] [%] | Activity [12] [%] | Activity [13] [%] | Activity [14] [%] | Activity [15] [%] | Activity [16] [%] | Activity [18] [%] | Activity [19] [%] | Activity [20] [%] | other results
1 |  | CCCCCCCC/C=C\CCCCCCCCOC[C@@H]1[C@@H](O)[C@@H](O)CN1C(N)=O | inactive | Active | inactive |  |  |  |  |  |  |  |  |  |  |  |  |  |  |  |  | 
2 |  | CCCCCCCC/C=C\CCCCCCCCOC[C@@H]1[C@@H](O)[C@@H](O)CN1C | inactive | Active | inactive |  |  |  |  |  |  |  |  |  |  |  |  |  |  |  |  | 
3 | 4.2 | Cl.O[C@H]1CN[C@H](COCCCCCC/C=C/c2ccc(-c3ccccc3)cc2)C1 |  |  |  | 78.5 | 93.6 | 6.9 | 75.4 | 69.6 | 36.9 | 13.5 | 26 | 54.5 | 14.6 | 47.9 | 66.6 | 71.5 | 92.6 | 58.9 | 44.4 | Activity [21]: 73.7%; Activity [22]: 92.1%; Activity [23]: 16.1%; Activity [24]: 10%; Activity [25]: 54.2%; Activity [26]: 29.3%; Activity [27]: 19.8%; Activity [28]: 9.6%
4 | 3.9 | Cl.O[C@H]1CN[C@H](COCCCCCCCC/C=C/c2ccc(Oc3ccccc3)cc2)C1 |  |  |  | 72.9 | 85.9 | 3.5 | 74.8 | 66.6 | 33.7 | 6.9 | 30.1 | 8.1 | 9.1 | 28.2 | 46.5 | 48.7 | 94.3 | 40.1 | 42.8 | Activity [21]: 72.7%; Activity [22]: 87.5%; Activity [23]: 14.7%; Activity [24]: 7.4%; Activity [25]: 43.8%; Activity [26]: 21.8%; Activity [27]: 6.5%; Activity [28]: 12.9%
5 |  | CCCCCCCC/C=C\CCCCCCCCOC[C@@H]1[C@@H](O)[C@@H](O)CN1Cc1ccccc1 | inactive | Active | inactive |  |  |  |  |  |  |  |  |  |  |  |  |  |  |  |  | 
